Results on 1 molecule are retold here after ChEMBL document CHEMBL1158745, “Guttiferone I, a new prenylated benzophenone from Garcinia humilis as a liver X receptor ligand” (J Nat Prod, 2005).

Experiment [1] has as its target Liver X receptor (LXR alpha AND LXR beta) (Homo sapiens) (UniProt Q13133+P55055). Put plainly: Selectivity ratio of IC50 for human LXRbeta to IC50 for human LXRalpha. Format: protein assay.
Experiment [2] has as its target T1, Oxysterols receptor LXR-beta (Homo sapiens, UniProt P55055).
T1 sequence (P55055 whole entry): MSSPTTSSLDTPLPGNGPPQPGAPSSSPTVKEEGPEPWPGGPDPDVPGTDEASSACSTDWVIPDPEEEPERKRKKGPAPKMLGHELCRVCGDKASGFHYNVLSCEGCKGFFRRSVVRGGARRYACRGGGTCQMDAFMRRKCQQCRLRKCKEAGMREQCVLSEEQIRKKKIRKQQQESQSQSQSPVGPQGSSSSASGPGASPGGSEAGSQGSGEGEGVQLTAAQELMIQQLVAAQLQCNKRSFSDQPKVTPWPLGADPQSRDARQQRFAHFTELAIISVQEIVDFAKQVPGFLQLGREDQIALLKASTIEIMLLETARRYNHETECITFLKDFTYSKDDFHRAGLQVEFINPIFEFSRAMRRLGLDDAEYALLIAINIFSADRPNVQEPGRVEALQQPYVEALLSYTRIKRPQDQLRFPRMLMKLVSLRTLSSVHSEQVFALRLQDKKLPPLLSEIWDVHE
Put plainly: Displacement of [3H2]F3-methylAA from human LXRbeta expressed in Escherichia coli BL21 cells by scintillation proximity assay. In general terms: In a scintillation proximity assay essentially only radioactivity close to the scintillant gives light.

In experiment [3] the target is T2, Oxysterols receptor LXR-alpha (Homo sapiens, UniProt Q13133).
T2 sequence (Q13133 whole entry): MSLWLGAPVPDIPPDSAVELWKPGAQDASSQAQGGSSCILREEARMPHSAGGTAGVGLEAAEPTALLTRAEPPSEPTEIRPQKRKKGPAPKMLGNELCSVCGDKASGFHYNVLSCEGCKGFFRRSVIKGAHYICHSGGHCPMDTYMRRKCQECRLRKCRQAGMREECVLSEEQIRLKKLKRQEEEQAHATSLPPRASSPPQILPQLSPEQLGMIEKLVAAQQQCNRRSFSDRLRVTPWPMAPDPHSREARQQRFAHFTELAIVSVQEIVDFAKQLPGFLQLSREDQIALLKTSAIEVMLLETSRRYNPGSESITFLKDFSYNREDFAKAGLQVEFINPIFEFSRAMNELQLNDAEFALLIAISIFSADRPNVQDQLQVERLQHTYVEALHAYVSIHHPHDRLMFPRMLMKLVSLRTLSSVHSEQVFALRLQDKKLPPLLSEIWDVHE
Description: Displacement of [3H2]F3-methylAA from human LXRalpha expressed in Escherichia coli BL21 cells by scintillation proximity assay.

Usually IC50 stands for the concentration needed to halve the response being measured. A lower IC50 goes with greater potency in that assay.

As for `CC(C)=CCC/C(C)=C/C[C@H]1C[C@]2(CC=C(C)C)C(=O)[C@@](CC=C(C)C)(C(=O)C(C(=O)c3ccc(O)c(O)c3)=C2O)[C@]1(C)CCC=C(C)C` [GUTTIFERONE I], the Ratio IC50 in experiment [1] stood at 5. In addition, the figures for the IC50 in experiment [2] and in experiment [3] were above 15 µM and 3.4 µM, respectively.
